Earlier results in US6365551B1, “Highly concentrated glyphosate herbicidal compositions” (Monsanto Technology LLC, priority 1990, dated 2002).

Details: glyphosate in acid form

O=C(O)CNCP(=O)(O)O [glyphosate, N-phosphonomethylglycine]
water solubility: about 1.2%
